Experimental data: article PMC11945486, “TAS1R2/TAS1R3 Single-Nucleotide Polymorphisms Affect Sweet Taste Receptor Activation by Sweeteners: The SWEET Project” (Nutrients, 2025)
Where two headings read alike, the source gives them in different places. Blank lines part the entries; values can stand above or below the molecule they belong to. No end group written: not given here.

Biological target: T1, human TAS1R2-WT/TAS1R3-R813K (Homo sapiens, UniProt Q7RTX0+Q8TE23, R813K)
T1 construct: expressed in transfected cells; host or cells: HEK293T stably expressing Gα16gust44
T1 sequence (Q8TE23 20-839): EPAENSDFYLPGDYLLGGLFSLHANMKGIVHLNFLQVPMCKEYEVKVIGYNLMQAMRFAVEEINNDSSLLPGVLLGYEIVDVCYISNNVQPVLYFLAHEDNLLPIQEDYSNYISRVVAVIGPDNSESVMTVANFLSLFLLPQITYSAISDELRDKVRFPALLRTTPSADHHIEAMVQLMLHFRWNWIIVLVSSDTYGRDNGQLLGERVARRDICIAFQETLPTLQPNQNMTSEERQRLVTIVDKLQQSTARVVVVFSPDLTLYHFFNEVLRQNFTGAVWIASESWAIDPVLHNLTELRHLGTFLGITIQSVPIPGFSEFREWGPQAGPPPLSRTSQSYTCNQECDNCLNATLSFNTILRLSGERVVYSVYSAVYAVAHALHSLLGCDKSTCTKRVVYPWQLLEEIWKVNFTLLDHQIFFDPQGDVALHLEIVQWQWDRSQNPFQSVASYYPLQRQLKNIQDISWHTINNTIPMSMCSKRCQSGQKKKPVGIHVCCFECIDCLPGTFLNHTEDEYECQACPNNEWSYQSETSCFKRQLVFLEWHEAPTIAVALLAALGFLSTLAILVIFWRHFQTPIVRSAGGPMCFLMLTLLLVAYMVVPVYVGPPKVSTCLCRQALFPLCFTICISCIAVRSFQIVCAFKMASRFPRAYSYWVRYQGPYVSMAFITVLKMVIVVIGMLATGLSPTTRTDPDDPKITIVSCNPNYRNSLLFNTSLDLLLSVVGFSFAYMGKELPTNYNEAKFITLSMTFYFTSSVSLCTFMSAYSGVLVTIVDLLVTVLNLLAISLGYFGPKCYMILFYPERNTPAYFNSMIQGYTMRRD
T1 sequence (Q7RTX0 21-852 R813K): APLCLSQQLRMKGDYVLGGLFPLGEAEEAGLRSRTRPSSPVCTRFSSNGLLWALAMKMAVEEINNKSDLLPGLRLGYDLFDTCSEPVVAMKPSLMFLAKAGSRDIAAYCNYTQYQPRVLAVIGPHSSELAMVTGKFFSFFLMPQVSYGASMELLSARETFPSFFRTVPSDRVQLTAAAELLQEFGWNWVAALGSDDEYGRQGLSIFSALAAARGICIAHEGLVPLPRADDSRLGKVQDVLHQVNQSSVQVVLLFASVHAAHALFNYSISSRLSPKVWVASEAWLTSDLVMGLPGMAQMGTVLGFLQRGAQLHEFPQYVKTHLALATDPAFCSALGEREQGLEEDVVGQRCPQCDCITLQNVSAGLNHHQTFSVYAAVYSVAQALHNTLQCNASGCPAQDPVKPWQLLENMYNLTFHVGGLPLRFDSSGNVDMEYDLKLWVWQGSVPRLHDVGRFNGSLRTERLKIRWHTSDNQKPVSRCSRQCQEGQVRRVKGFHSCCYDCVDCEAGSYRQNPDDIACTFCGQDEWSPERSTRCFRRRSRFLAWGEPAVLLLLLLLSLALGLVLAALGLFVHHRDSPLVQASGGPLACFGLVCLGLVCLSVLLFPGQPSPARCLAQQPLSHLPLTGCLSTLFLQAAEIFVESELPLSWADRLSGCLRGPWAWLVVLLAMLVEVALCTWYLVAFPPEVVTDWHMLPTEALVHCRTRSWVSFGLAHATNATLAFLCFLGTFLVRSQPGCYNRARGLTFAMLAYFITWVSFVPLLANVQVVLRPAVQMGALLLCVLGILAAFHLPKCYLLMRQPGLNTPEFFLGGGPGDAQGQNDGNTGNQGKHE
Test: Calcium mobilisation assay, TAS1R2-WT with TAS1R3 variant R813K
Format: cell-based
Conditions: for Max ΔF/F0: maximal signal amplitude
Source text: The coding sequences for TAS1R2 and TAS1R3 were commercially synthesised, and the human codon was optimised for expression in human cells. The coding sequences of human TAS1R2 and TAS1R3 were subcloned and inserted into the mammalian expression vectors pcDNA6/myc-HisA and pcDNA4/myc-HisA (Invitrogen; Thermo Fisher Scientific; Illkirch, France) between the EcoRI and NotI restriction sites, generating the plasmids pcDNA6-TAS1R2 and pcDNA4-TAS1R3, respectively. To increase protein expression in mammalian cells, an upstream start codon was used, which was a sequence called MAX, corresponding to the QBI SP163 element also described in pcDNA4-HisMax (Invitrogen; Thermo Fisher Scientific; Illkirch, France). To measure the expression level of the receptor by immunohistochemistry, we used the FLAG sequence ([…]) in the C-terminal position, which encodes the FLAG tag epitope. SNP variants of TAS1R2 and TAS1R3 were constructed based on […], respectively, using site-directed mutagenesis (Genewiz; Leipzig, Germany).
The HEK293T cells were kindly provided by Jay P. Slack (Givaudan Flavors Corporation; Cincinnati, OH, USA). HEK293T cells stably transfected with Gα16gust44 [43, 67] were seeded in poly-D-lysine-coated clear-bottom black 96-well plates (0.35 × 10^5 cells/well) in high-glucose DMEM supplemented with 2 mM GlutaMAX, 10% dialysed foetal bovine serum with penicillin/streptomycin and G418 (400 μg/mL) at 37 °C and 6.3% CO2 in a humidified atmosphere as previously reported. […] As a negative control, HEK293T cells were mock-transfected with the empty expression vector. After a further 24 h of incubation, the HEK293T cells were washed with C1 buffer (130 mM NaCl, 5 mM KCl, 10 mM HEPES pH 7.4 and 2 mM CaCl2). The 96-well plates containing the cells were then stimulated with sweet-tasting compounds. […] Different concentration ranges were tested depending on the sweet compound injected. The Ca^2+ changes were expressed as fractional changes in fluorescent light intensity: ΔF/F = (F − F0)/F0, where F was the fluorescent light intensity at each point, and F0 was the value of emitted fluorescent light prior to stimulus application. To calculate dose–response relationships, the changes in fluorescence upon stimulus application were averaged, mock-subtracted and baseline-corrected. The dose–response data obtained were adjusted using a 4-parameter logistic equation. The half-maximal effective concentrations (EC50 values) and maximal signal amplitudes were calculated using SigmaPlot software (version 15.0) (Systat Software; San Jose, CA, USA).
For in vitro calcium mobilisation assay performed on hTAS1R2-SNPs, hTAS1R3-SNPs and mTAS1R3-I60T, 6 to 7 concentrations were tested for each sweet compound, plus buffer alone. All concentration–receptor combinations were measured in duplicate, and each experiment was repeated at least 4 times (8 wells/concentration). Results were expressed for each concentration as ΔF/F mean ± SEM and represented as dose–response curves.

- R1 = Variant EC50/WT EC50: 0.7
- Max ΔF/F0: 0.40 ± 0.01
- EC50 (read-out: EC50): 433 ± 34 µM
Molecule: CC1=CC(=O)NS(=O)(=O)O1 [Acesulfame K, acesulfame K]

Molecule: O=S(=O)(O)NC1CCCCC1 [Cyclamate, cyclamate]
- EC50 (read-out: EC50): 1330 ± 22 µM

Molecule: C[C@H](CC[C@@H](O[C@@H]1O[C@H](CO[C@@H]2O[C@H](CO)[C@@H](O)[C@H](O)[C@H]2O)[C@@H](O)[C@H](O)[C@H]1O[C@@H]1O[C@H](CO)[C@@H](O)[C@H](O)[C@H]1O)C(C)(C)O)[C@H]1CC[C@@]2(C)[C@@H]3CC=C4[C@@H](CC[C@H](O[C@@H]5O[C@H](CO[C@@H]6O[C@H](CO)[C@@H](O)[C@H](O)[C@H]6O)[C@@H](O)[C@H](O)[C@H]5O)C4(C)C)[C@]3(C)[C@H](O)C[C@]12C [Mogroside V, mogroside V]
- R1 = Variant EC50/WT EC50: 0.7
- Max ΔF/F0: 1.14 ± 0.02
- EC50 (read-out: EC50): 22 ± 1.3 µM

- R1 = Variant EC50/WT EC50: 0.7
- Max ΔF/F0: 1.00 ± 0.02
- EC50 (read-out: EC50): 34.2 ± 15.2 µM
Molecule: COc1ccc(CCC(=O)c2c(O)cc(O[C@@H]3O[C@H](CO)[C@@H](O)[C@H](O)[C@H]3O[C@@H]3O[C@@H](C)[C@H](O)[C@@H](O)[C@H]3O)cc2O)cc1O [NHDC, neohesperidin dihydrochalcone]

- R1 = Variant EC50/WT EC50: 0.8
- Max ΔF/F0: 0.79 ± 0.02
- EC50 (read-out: EC50): 0.98 ± 0.07 µM
Molecule: COC(=O)[C@H](Cc1ccccc1)NC(=O)[C@H](CC(=O)O)NCCC(C)(C)C [Neotame]

- R1 = Variant EC50/WT EC50: 0.8
- Max ΔF/F0: 1.28 ± 0.16
- EC50 (read-out: EC50): 10.4 ± 3.6 µM
Molecule: C=C(C)[C@@H]1CC=C(/C=N/O)CC1 [Perillartine, perillartine]

- R1 = Variant EC50/WT EC50: 0.7
- Max ΔF/F0: 1.18 ± 0.06
- EC50 (read-out: EC50): 27.4 ± 3.4 µM
Molecule: C=C1C[C@@]23CC[C@H]4[C@@](C)(CCC[C@@]4(C)C(=O)O[C@@H]4O[C@H](CO)[C@@H](O)[C@H](O[C@@H]5O[C@H](CO)[C@@H](O)[C@H](O)[C@H]5O)[C@H]4O[C@@H]4O[C@H](CO)[C@@H](O)[C@H](O)[C@H]4O)[C@@H]2CC[C@]1(O[C@@H]1O[C@H](CO)[C@@H](O)[C@H](O[C@@H]2O[C@H](CO)[C@@H](O)[C@H](O)[C@H]2O)[C@H]1O[C@@H]1O[C@H](CO)[C@@H](O)[C@H](O)[C@H]1O)C3 [Rebaudioside M, rebaudioside M]

- R1 = Variant EC50/WT EC50: 1.1
- Max ΔF/F0: 0.90 ± 0.03
- EC50 (read-out: EC50): 120 ± 9 µM
Molecule: OC[C@H]1O[C@H](O[C@]2(CCl)O[C@H](CCl)[C@@H](O)[C@@H]2O)[C@H](O)[C@@H](O)[C@H]1Cl [Sucralose]

- R1 = Variant EC50/WT EC50: 0.5
- EC50 (brazzein): 58.0 ± 10.5 µg/mL
- Max ΔF/F0: 1.00 ± 0.05
Molecule: brazzein (QDKCKKVYENYPVSKCQLANQCNYDCKLDKHARSGECFYDEKRNLQCICDYCEY; ends and bridges not checked; cysteine pairing not given here; UniProt P56552 1-54, looked up) [sweet-tasting protein obtained by recombinant production using the yeast Pichia pastoris]

- R1 = Variant EC50/WT EC50: 0.6
- Max ΔF/F0: 0.74 ± 0.04
Molecule: thaumatin

- EC50 (read-out: EC50): 6.5 ± 0.9 µM
B1: thaumatin (protein)
chain: ATFEIVNRCSYTVWAAASKGDAALDAGGRQLNSGESWTINVEPGTKGGKIWARTDCYFDDSGSGICKTGDCGGLLRCKRFGRPPTTLAEFSLNQYGKDYIDISNIKGFNVPMDFSPTTRGCRGVRCAADIVGQCPAKLKAPGGGCNDACTVFQTSEYCCTTGKCGPTEYSRFFKRLCPDAFSYVLDKPTTVTCPGSSNYRVTFCPTA
modifications: Eight disulfides
notes: sweet-tasting plant protein, E957
